Consider 33 compounds from patent publication US10610520B2, “Heterocyclic compound” (Takeda Pharmaceutical Company Limited, priority 2016, dated 2020).

Molecules are shown by their SMILES.

In the test the target is T1, His-hMAGL (recombinant polyhistidine tagged human MAGL protein) (Homo sapiens, UniProt Q99685).
T1 construct: made in house; host or cells: E. coli BL21(DE3)
T1 sequence (Q99685 1-303): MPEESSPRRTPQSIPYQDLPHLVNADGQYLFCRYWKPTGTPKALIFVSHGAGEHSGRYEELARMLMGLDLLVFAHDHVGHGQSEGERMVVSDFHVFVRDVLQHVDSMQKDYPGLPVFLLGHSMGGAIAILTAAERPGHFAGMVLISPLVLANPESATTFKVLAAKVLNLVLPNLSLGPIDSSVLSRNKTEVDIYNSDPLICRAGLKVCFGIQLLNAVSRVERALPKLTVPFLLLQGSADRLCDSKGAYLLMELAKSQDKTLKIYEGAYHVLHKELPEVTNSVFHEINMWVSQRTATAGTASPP
Kind of test: Measurement of MAGL inhibitory activity (arachidonic acid production from 2-arachidonylglycerol, RapidFire-mass spectrometry). The test is classed as biochemical. The following applies: MAGL inhibitory rate, test compound 10 μM, 60 min preincubation, 2-arachidonylglycerol substrate. In outline: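 Arachidonic acid formed was quantified by online solid-phase extraction and triple-quadrupole MS in negative SRM mode against a d8 internal standard. Reaction: recombinant His-hMAGL (7.5 ng/mL, pH 7.5 Tris buffer with Triton X-100 and BSA) plus 2-AG (5 μL of 150 μM stock) for 10 min at room temperature, quenched with 2% formic acid. Percent inhibition corrected for enzyme-free background.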
A word on the inhibition: it is the drop in the measured response relative to a control, in per cent. As to `CC1(c2cccc(-c3ccc(C(=O)N4CC5(COC(=O)N5)C4)cc3F)c2)CC1` [Example 274, 2-((2-fluoro-3′-(1-methylcyclopropyl)biphenyl-4-yl)carbonyl)-7-oxa-2,5-diazaspiro[3.4]octan-6-one], the inhibition at 10 µM was determined as 101%. To `O=C1CCC2(CN(C(=O)c3cc4cc(C(F)(F)F)ccc4s3)C2)N1` [Example 33, 2-((5-(trifluoromethyl)-1-benzothiophen-2-yl)carbonyl)-2,5-diazaspiro[3.4]octan-6-one] belongs 85%; to `O=C1CCC2(CN(C(=O)c3sc4cc(-c5ccc(Cl)cc5)ccc4c3Cl)C2)N1` [Example 191, 2-((3-chloro-6-(4-chlorophenyl)-1-benzothiophen-2-yl)carbonyl)-2,5-diazaspiro[3.4]octan-6-one], 97%. To `O=C1NC2(CO1)CN(C(=O)c1sc3cc(-c4ccccc4F)ccc3c1-c1ccccc1F)C2` [Example 346, 2-((3,6-bis(2-fluorophenyl)-1-benzothiophen-2-yl)carbonyl)-7-oxa-2,5-diazaspiro[3.4]octan-6-one] belongs 100%; to `O=C1NC2(CCN(C(=O)c3sc4cc(OC(F)(F)F)ccc4c3Cl)C2)CO1` (stereo not drawn) [Example 321, 7-((3-chloro-6-(trifluoromethoxy)-1-benzothiophen-2-yl)carbonyl)-3-oxa-1,7-diazaspiro[4.4]nonan-2-one], 100%. To `O=C1CCC2(CCN(C(=O)N3CC(COc4ccc5c(c4)CCCC5)C3)C2)N1` (stereo not drawn) [Example 320, 7-((3-((5,6,7,8-tetrahydronaphthalen-2-yloxy)methyl)azetidin-1-yl)carbonyl)-1,7-diazaspiro[4.4]nonan-2-one] belongs 94%; to `O=C1CCC2(CN(C(=O)N3CCC(Cc4ccc(C(F)(F)F)cc4Cl)CC3)C2)N1` [Example 107, 2-((4-(2-chloro-4-(trifluoromethyl)benzyl)piperidin-1-yl)carbonyl)-2,5-diazaspiro[3.4]octan-6-one], 98%. In the case of `O=C1NC2(CCN(C(=O)c3sc4c(F)c(F)cc(Cl)c4c3Cl)C2)CO1` (stereo not drawn) [Example 340, 7-((3,4-dichloro-6,7-difluoro-1-benzothiophen-2-yl)carbonyl)-3-oxa-1,7-diazaspiro[4.4]nonan-2-one], the inhibition at 10 µM was 99%. In the case of `O=C1NC2(CO1)CN(C(=O)c1sc3cc(F)cc(F)c3c1Cl)C2` [Example 362, 2-((3-chloro-4,6-difluoro-1-benzothiophen-2-yl)carbonyl)-7-oxa-2,5-diazaspiro[3.4]octan-6-one], the inhibition at 10 µM was found to be 100%. `O=C1NC2(CO1)CN(C(=O)c1sc3ccccc3c1Cl)C2` [Example 288, 2-((3-chloro-1-benzothiophen-2-yl)carbonyl)-7-oxa-2,5-diazaspiro[3.4]octan-6-one]: the inhibition at 10 µM turned out to be 100%. Under `O=C1CCC2(CN(C(=O)N3CC(OCc4ccc(C(F)(F)F)cc4F)C3)C2)N1` [Example 9, 2-((3-((2-fluoro-4-(trifluoromethyl)benzyl)oxy)azetidin-1-yl)carbonyl)-2,5-diazaspiro[3.4]octan-6-one] stands 98%. To `O=C1CCC2(CN(C(=O)N3CCC(C(F)(c4ccccc4)c4ccccc4)CC3)C2)N1` [Example 237, 2-((4-(fluoro(diphenyl)methyl)piperidin-1-yl)carbonyl)-2,5-diazaspiro[3.4]octan-6-one] belongs 101%. For the compound `O=C1CCC2(CN(C(=O)c3ccc(-c4cc(C5CC5)ccc4F)cc3)C2)N1` [Example 53, 2-((5′-cyclopropyl-2′-fluorobiphenyl-4-yl)carbonyl)-2,5-diazaspiro[3.4]octan-6-one], the inhibition at 10 µM amounted to 99%.

With `O=C1NC2(CO1)CN(C(=O)[C@H]1C[C@@H](OCc3ccc(C(F)(F)F)c(Cl)c3)C1)C2` [Example 359, 2-((cis-3-((3-chloro-4-(trifluoromethyl)benzyl)oxy)cyclobutyl)carbonyl)-7-oxa-2,5-diazaspiro[3.4]octan-6-one], the inhibition at 10 µM was 99%. Consider `O=C1CCC2(CN(C(=O)c3sc4cc(OC(F)(F)F)ccc4c3C(F)F)C2)N1` [Example 265, 2-((3-(difluoromethyl)-6-(trifluoromethoxy)-1-benzothiophen-2-yl)carbonyl)-2,5-diazaspiro[3.4]octan-6-one], for which the inhibition at 10 µM was determined as 97%. To `O=C1CCC2(CN(C(=O)c3sc4cc(F)ccc4c3Cl)C2)N1` [Example 140, 2-((3-chloro-6-fluoro-1-benzothiophen-2-yl)carbonyl)-2,5-diazaspiro[3.4]octan-6-one] belongs 99%; to `Cc1ccc(OCC2CN(C(=O)N3CC4(CCC(=O)N4)C3)C2)c(Cl)c1` [Example 21, 2-((3-((2-chloro-4-methylphenoxy)methyl)azetidin-1-yl)carbonyl)-2,5-diazaspiro[3.4]octan-6-one], 102%. Take `O=C1NC2(CO1)CN(C(=O)c1sc3c(C(F)(F)F)cccc3c1C(F)F)C2` [Example 277, 2-((3-(difluoromethyl)-7-(trifluoromethyl)-1-benzothiophen-2-yl)carbonyl)-7-oxa-2,5-diazaspiro[3.4]octan-6-one]: the inhibition at 10 µM was determined as 101%. To `Cc1ncccc1-c1ccc2c(Cl)c(C(=O)N3CC4(CCC(=O)N4)C3)sc2c1` [Example 229, 2-((3-chloro-6-(2-methylpyridin-3-yl)-1-benzothiophen-2-yl)carbonyl)-2,5-diazaspiro[3.4]octan-6-one] belongs 100%; to `O=C1CCC2(CN(C(=O)c3ccc(-c4cc(Cl)ccc4Cl)cc3)C2)N1` [Example 80, 2-((2′,5′-dichlorobiphenyl-4-yl)carbonyl)-2,5-diazaspiro[3.4]octan-6-one], 98%; to `Cc1ccc(-c2ccc3c(Cl)c(C(=O)N4CC5(CCC(=O)N5)C4)sc3c2)cc1` [Example 184, 2-((3-chloro-6-(4-methylphenyl)-1-benzothiophen-2-yl)carbonyl)-2,5-diazaspiro[3.4]octan-6-one], 99%.

As to `CC1(C2CCN(C(=O)N3CC4(CCC(=O)N4)C3)CC2)Cc2ccccc2O1` (stereo not drawn) [Example 2, 2-((4-(2-methyl-2,3-dihydro-1-benzofuran-2-yl)piperidin-1-yl)carbonyl)-2,5-diazaspiro[3.4]octan-6-one], the inhibition at 10 µM is 100%. Under `Cc1ccc(C)c(-c2ccc(C(=O)N3CC4(CCC(=O)N4)C3)cc2)c1` [Example 90, 2-((2′,5′-dimethylbiphenyl-4-yl)carbonyl)-2,5-diazaspiro[3.4]octan-6-one] stands 92%; under `O=C1CCC2(CN(C(=O)N3CCC(Cc4ccccc4Cl)CC3)C2)N1` [Example 101, 2-((4-(2-chlorobenzyl)piperidin-1-yl)carbonyl)-2,5-diazaspiro[3.4]octan-6-one], 99%. To `O=C1NC2(CO1)CN(C(=O)c1sc3ccc(C(F)(F)F)cc3c1C(F)F)C2` [Example 275, 2-((3-(difluoromethyl)-5-(trifluoromethyl)-1-benzothiophen-2-yl)carbonyl)-7-oxa-2,5-diazaspiro[3.4]octan-6-one] belongs 100%; to `O=C1NC2(CO1)CN(C(=O)c1sc3c(C(F)(F)F)cccc3c1OCC(F)(F)F)C2` [Example 271, 2-((3-(2,2,2-trifluoroethoxy)-7-(trifluoromethyl)-1-benzothiophen-2-yl)carbonyl)-7-oxa-2,5-diazaspiro[3.4]octan-6-one], 100%; to `O=C1CCC2(CN(C(=O)c3sc4cc(-c5ccc(F)cc5)ccc4c3Cl)C2)N1` [Example 36, 2-((3-chloro-6-(4-fluorophenyl)-1-benzothiophen-2-yl)carbonyl)-2,5-diazaspiro[3.4]octan-6-one], 99%. To `O=C1CCC2(CN(C(=O)c3sc4cc(-c5cc(F)ccc5Cl)ccc4c3Cl)C2)N1` [Example 223, 2-((3-chloro-6-(2-chloro-5-fluorophenyl)-1-benzothiophen-2-yl)carbonyl)-2,5-diaspiro[3.4]octan-6-one] belongs 100%; to `Cc1cc(C(=O)N2CC3(CCC(=O)N3)C2)ccc1-c1ccccc1` [Example 118, 2-((2-methylbiphenyl-4-yl)carbonyl)-2,5-diazaspiro[3.4]octan-6-one], 87%. With `O=C1CCC2(CN(C(=O)c3sc4cc(OC(F)F)ccc4c3Cl)C2)N1` [Example 260, 2-((3-chloro-6-(difluoromethoxy)-1-benzothiophen-2-yl)carbonyl)-2,5-diazaspiro[3.4]octan-6-one], the inhibition at 10 µM was determined as 100%. To `COc1ccc2c(Cl)c(C(=O)N3CC4(CCC(=O)N4)C3)sc2c1` [Example 139, 2-((3-chloro-6-methoxy-1-benzothiophen-2-yl)carbonyl)-2,5-diazaspiro[3.4]octan-6-one] belongs 99%; to `O=C1CCC2(CN(C(=O)c3ccc(-c4c(F)cccc4F)cc3)C2)N1` [Example 76, 2-((2′,6′-difluorobiphenyl-4-yl)carbonyl)-2,5-diazaspiro[3.4]octan-6-one], 85%. With `COc1cc(F)c2c(Cl)c(C(=O)N3CC4(COC(=O)N4)C3)sc2c1Cl` [Example 294, 2-((3,7-dichloro-4-fluoro-6-methoxy-1-benzothiophen-2-yl)carbonyl)-7-oxa-2,5-diazaspiro[3.4]octan-6-one], the inhibition at 10 µM was determined as 100%.
